IC50 data for 1 compound are collected here from ChEMBL document CHEMBL6083201, “Identification of triazolyl KAT6 inhibitors via a templated fragment approach” (Bioorg Med Chem Lett, 2024).

This test concerns the target Histone acetyltransferase KAT6A (Homo sapiens, UniProt Q92794). Nature of the test: Inhibition of KAT6A (unknown origin).

Chain of Histone acetyltransferase KAT6A (Q92794 whole entry): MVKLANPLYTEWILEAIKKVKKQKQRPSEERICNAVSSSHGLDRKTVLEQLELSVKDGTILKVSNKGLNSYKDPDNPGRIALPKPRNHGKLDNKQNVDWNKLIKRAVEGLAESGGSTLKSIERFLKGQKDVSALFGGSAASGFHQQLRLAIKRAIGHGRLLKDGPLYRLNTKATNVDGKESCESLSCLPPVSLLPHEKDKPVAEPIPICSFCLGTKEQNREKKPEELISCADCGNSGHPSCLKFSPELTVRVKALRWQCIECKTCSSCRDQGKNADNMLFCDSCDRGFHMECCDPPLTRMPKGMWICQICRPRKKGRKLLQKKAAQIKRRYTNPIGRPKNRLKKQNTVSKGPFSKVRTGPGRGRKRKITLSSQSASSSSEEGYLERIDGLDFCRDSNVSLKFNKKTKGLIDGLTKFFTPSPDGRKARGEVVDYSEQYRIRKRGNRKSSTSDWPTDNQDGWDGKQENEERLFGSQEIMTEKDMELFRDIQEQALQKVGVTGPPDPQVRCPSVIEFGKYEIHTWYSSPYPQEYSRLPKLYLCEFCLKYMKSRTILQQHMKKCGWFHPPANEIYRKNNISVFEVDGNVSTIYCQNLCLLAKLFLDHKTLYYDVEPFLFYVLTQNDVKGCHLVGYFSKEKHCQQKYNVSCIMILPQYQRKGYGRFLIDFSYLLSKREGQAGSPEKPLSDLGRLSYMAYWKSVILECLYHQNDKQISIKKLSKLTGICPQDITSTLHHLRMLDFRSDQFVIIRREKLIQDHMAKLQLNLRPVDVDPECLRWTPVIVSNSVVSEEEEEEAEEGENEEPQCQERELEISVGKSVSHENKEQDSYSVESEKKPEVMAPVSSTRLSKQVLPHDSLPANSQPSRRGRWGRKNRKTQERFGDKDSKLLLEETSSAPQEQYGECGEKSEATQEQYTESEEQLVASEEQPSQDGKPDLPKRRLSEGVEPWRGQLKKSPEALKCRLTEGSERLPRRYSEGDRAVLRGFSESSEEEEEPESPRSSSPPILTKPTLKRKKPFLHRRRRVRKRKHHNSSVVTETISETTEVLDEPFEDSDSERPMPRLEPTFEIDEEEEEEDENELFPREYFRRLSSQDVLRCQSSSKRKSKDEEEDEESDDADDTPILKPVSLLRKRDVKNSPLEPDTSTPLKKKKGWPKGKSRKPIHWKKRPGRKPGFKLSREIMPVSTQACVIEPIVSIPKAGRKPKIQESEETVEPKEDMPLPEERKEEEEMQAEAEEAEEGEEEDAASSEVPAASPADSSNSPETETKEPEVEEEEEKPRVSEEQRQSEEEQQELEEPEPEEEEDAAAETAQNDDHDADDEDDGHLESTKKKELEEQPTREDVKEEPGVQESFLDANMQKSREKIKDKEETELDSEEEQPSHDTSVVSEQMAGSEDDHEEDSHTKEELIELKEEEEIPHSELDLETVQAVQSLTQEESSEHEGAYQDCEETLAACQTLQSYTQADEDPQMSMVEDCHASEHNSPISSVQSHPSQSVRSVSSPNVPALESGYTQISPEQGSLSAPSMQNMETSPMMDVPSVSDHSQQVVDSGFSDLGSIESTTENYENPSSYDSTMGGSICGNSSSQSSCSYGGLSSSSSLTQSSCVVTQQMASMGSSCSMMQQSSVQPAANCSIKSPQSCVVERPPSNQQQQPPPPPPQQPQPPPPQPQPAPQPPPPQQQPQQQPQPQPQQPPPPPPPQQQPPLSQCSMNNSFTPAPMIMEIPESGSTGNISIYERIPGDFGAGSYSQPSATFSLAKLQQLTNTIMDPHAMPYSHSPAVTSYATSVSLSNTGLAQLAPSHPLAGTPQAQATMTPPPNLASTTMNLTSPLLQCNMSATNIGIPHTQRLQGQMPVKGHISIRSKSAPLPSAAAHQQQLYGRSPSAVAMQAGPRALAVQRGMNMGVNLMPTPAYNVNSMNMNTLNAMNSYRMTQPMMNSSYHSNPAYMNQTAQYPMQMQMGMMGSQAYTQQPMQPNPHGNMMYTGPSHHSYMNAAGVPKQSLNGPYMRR

Broadly, the IC50 is the concentration needed to halve the response being measured. A high value points to weaker potency. With `COc1ccc(C2=CCN(C)CC2)cc1-n1cc(NS(=O)(=O)c2ccccc2)nn1`, the IC50 was above 100 µM.
